Converted amounts (≈) assume the structure as drawn. Like-named read-outs stand apart in the source and are kept apart here.
Legend:
Escherichia coli = assay: MIC vs. aerobic bacteria, microplate broth-dilution (BHI); assay type: cell-based
Protocol: (§1) The Minimal Inhibitory Concentration (MIC's) of both compounds Vs. aerobic bacteria is determined using a standard microplate broth-dilution method. Brain Heart Infusion (BHI-Difco) broth medium is used, and the plates are incubated at 37° C. for 20 hrs.

Diplococcus pneumoniae = assay: as above; assay type: cell-based; settings: Streptococcus pneumoniae
Protocol: as §1

Klebsiella pneumoniae = assay: as above; assay type: cell-based; settings: Klebsiella pneumoniae
Protocol: as §1

Pseudomonas aeruginosa = assay: as above; assay type: cell-based
Protocol: as §1

Streptococcus faecalis = assay: as above; assay type: cell-based; settings: Enterococcus faecalis
Protocol: as §1

Proteus vulgaris = assay: as above; assay type: cell-based; settings: Proteus vulgaris, UC93, 20 h, P. vulgaris UC 93; read-out: MIC
Protocol: as §1

[1] = test system: Salmonella schottmuelleri; assay: as above; assay type: cell-based; settings: Salmonella
Protocol: as §1

S. hemolyticus [2] = assay: MIC, test procedure as given supra; assay type: cell-based; settings: UC152, 20 h, S. hemolyticus UC 152; read-out: MIC
Protocol: as §1
(§2) The Minimal Inhibitory Concentration (MIC's) of a representative number of the compounds prepared in Examples 2-8 follows. The test procedure is as given supra.

S. lutea [3] = assay: MIC, test procedure as given supra; assay type: cell-based; settings: Micrococcus luteus, UC130, 20 h; S. lutea UC 130
Protocol: as §1, §2

Staphylococcus aureus = assay: MIC vs. aerobic bacteria, microplate broth-dilution (BHI); assay type: cell-based; settings: Staphylococcus aureus
S. lutea [4] = assay: Qual. Assay vs. S. lutea; assay type: cell-based; settings: qualitative
Streptococcus pyogenes = assay: MIC vs. aerobic bacteria, microplate broth-dilution (BHI); assay type: cell-based; settings: UC152, UC 152, read-out: Minimal Inhibitory Concentration (MIC)
Protocol: as §1

D. pneumoniae I = assay: Mouse Protection Test; assay type: in vivo; settings: for ED50: Streptococcus pneumoniae, 168 h, strain Felton I, read-out: Median Protective Dose (CD50)
From the text: (§3) Immediately before use, the suspensions were thawed quickly and properly diluted. Infection was via the intrapertioneal route.
(§4) Treatment of the infected groups was begun immediately and continued once per day for 4 days (first 24 hr period=1). Groups of untreated mice served as virulence controls for the culture.
(§5) Seven days after the treatment regimen was begun the surviving animals were sacrificed and the median protective dose of the antibiotic calculated on the basis of mortality rates in the treatment groups. The median protective dose and its 95% confidence interval were calculated according to the method of Spearmen & Karber as programmed on a 360 digital computer.
(§6) U-60,970E was also tested in vivo in standard laboratory mice which were experimentally infected with bacteria. The test was conducted in comparison with U-57,930E.

D. pneumoniae III = assay: Mouse Protection Test; assay type: in vivo; settings: for ED50: Streptococcus pneumoniae, 168 h, read-out: Median Protective Dose (CD50); for ED50 / Median Protective Dose (CD50): strain MPI III, two experiments listed; for Median Protective Dose (CD50): 10080 min, listed as U-60970E . Hcl
From the text: as §3, §4, §5, §6

S. hemolyticus [5] = assay: Mouse Protection Test; assay type: in vivo; settings: for ED50: 168 h, read-out: Median Protective Dose (CD50)
From the text: as §3, §4, §5

S. aureus = assay: Mouse Protection Test; assay type: in vivo; settings: for ED50: Staphylococcus aureus, read-out: Median Protective Dose (CD50)
From the text: as §3, §4, §5

bacteria = assay: antibacterial activity (general statement)
[6] = UC45, UC 45, read-out: Minimal Inhibitory Concentration (MIC)
[7] = UC41, Diplococcus pneumoniae I, UC 41, read-out: Minimal Inhibitory Concentration (MIC)
[8] = UC58, UC 58, read-out: Minimal Inhibitory Concentration (MIC)
[9] = UC95, UC 95, read-out: Minimal Inhibitory Concentration (MIC)
[10] = UC694, UC 694, read-out: Minimal Inhibitory Concentration (MIC)
[11] = UC126, UC 126, read-out: Minimal Inhibitory Concentration (MIC)
[12] = UC76, S. aureus UC 76, read-out: Minimal Inhibitory Concentration (MIC)
[13] = UC570, S. aureus UC 570, read-out: Minimal Inhibitory Concentration (MIC)
[14] = UC746, S. aureus UC 746, read-out: Minimal Inhibitory Concentration (MIC)

For `CCc1ccnc(C(=O)N[C@@H]([C@H]2O[C@H](SC)[C@H](O)[C@@H](O)[C@H]2O)[C@H](C)O)c1` [U-45,659], the MIC (Escherichia coli; UC45, 20 h, E. coli UC 45, read-out: MIC) was > 1000 µg/mL, the MIC (Diplococcus pneumoniae; UC41, 20 h, D. pneumoniae UC 41, read-out: MIC) was 500 µg/mL (≈ 1290 µM) and the MIC (Klebsiella pneumoniae; UC58, 20 h, K. pneumoniae UC 58, read-out: MIC) was 1000 µg/mL (≈ 2590 µM). For the same compound, the MIC (Pseudomonas aeruginosa; UC95, 20 h, Ps. aeruginosa UC 95, read-out: MIC) was 1000 µg/mL (≈ 2590 µM), the MIC (Streptococcus faecalis; UC694, 20 h, St. faecalis UC 694, read-out: MIC) was > 1000 µg/mL and the MIC (Proteus vulgaris) was > 1000 µg/mL. The MIC ([1]; UC126, 20 h, S. schottmuelleri UC 126) was > 1000 µg/mL, the MIC (S. hemolyticus [2]) was 500 µg/mL (≈ 1290 µM) and the MIC (S. lutea [3]) was 1000 µg/mL (≈ 2590 µM). The MIC (Staphylococcus aureus; UC76, 20 h, S. aureus UC 76, read-out: MIC) was > 1000 µg/mL, the MIC (Staphylococcus aureus; UC570, 20 h, S. aureus UC 570, read-out: MIC) was > 1000 µg/mL and the MIC (Staphylococcus aureus; UC746, 20 h, S. aureus UC 746, read-out: MIC) was 1000 µg/mL (≈ 2590 µM).
With `CS[C@H]1O[C@H]([C@H](NC(=O)c2cccnc2)[C@H](C)Cl)[C@H](O)[C@H](O)[C@H]1O` [U-46,138] the “Qual. Assay vs. S. lutea” value (S. lutea [4]) was “Inactive”.
`CCCC[C@@H]1CCN[C@H](C(=O)N[C@@H]([C@H]2O[C@H](SC)[C@H](O)[C@@H](O)[C@H]2O)[C@H](C)Cl)C1` [U-60,970E, 4-Cis-n-Butyl-L-Pipecolic Acid Amide of 7-Cl-MTL] showed an MIC (Escherichia coli; [6]) of 31.2 µg/mL (≈ 71.1 µM), an MIC (Diplococcus pneumoniae; [7]) of 0.016 µg/mL (≈ 0.0364 µM) and an MIC (Streptococcus pyogenes) of 0.008 µg/mL (≈ 0.0182 µM). For the same compound, the MIC (Klebsiella pneumoniae; [8]) was 7.8 µg/mL (≈ 17.8 µM), the MIC (Pseudomonas aeruginosa; [9]) was > 125 µg/mL and the MIC (Streptococcus faecalis; [10]) was 0.25 µg/mL (≈ 0.569 µM). For the same compound, the MIC [1, 11] was 31.2 µg/mL (≈ 71.1 µM), the ED50 (D. pneumoniae I; oral) was 4.42 mg/kg and the ED50 (D. pneumoniae I; sc, subcutaneous) was 0.67 mg/kg. The “in vivo activity compared with U-57,930E” value (D. pneumoniae I; infected mice) was “significantly more active”, the ED50 (D. pneumoniae III; po, oral) was 3.13 mg/kg and the ED50 (D. pneumoniae III; sc, subcutaneous) was 0.44 mg/kg. The “in vivo activity compared with U-57,930E” value (D. pneumoniae III; infected mice) was “significantly more active”, the “Median Protective Dose (CD50)” value (D. pneumoniae III; oral) was 4.12 (2.93-5.81) mg/kg and the “Median Protective Dose (CD50)” value (D. pneumoniae III; subcutaneous) was 0.29 (0.21-0.41) mg/kg. For the same compound, the ED50 (S. hemolyticus [5]; strain C203, oral) was 2.18 mg/kg, the “in vivo activity compared with U-57,930E” value (S. hemolyticus [5]; infected mice) was “essentially the same activity” and the ED50 (S. hemolyticus [5]; sc, strain C203, subcutaneous) was 0.35 mg/kg. For the same compound, the ED50 (S. aureus; UC76, 168 h, strain UC 76, oral) was 8.12 mg/kg, the ED50 (S. aureus; UC76, sc, 168 h, strain UC 76, subcutaneous) was 1.32 mg/kg and the “in vivo activity compared with U-57,930E” value (S. aureus; infected mice) was “essentially the same activity”. The MIC (Staphylococcus aureus; [12]) was 0.125 µg/mL (≈ 0.285 µM), the MIC (Staphylococcus aureus; [13]) was 0.25 µg/mL (≈ 0.569 µM) and the MIC (Staphylococcus aureus; [14]) was 0.062 µg/mL (≈ 0.141 µM).
For `CC[C@H]1CCN[C@@H](C(=O)N[C@@H]([C@H]2O[C@H](SC)[C@H](O)[C@@H](O)[C@H]2O)[C@H](C)Cl)C1` [V A], the MIC (Escherichia coli; [6]) was > 1000 µg/mL, the MIC (Diplococcus pneumoniae; [7]) was 62.5 µg/mL (≈ 152 µM) and the MIC (Streptococcus pyogenes) was 62.5 µg/mL (≈ 152 µM). The MIC (Klebsiella pneumoniae; [8]) was > 1000 µg/mL, the MIC (Pseudomonas aeruginosa; [9]) was > 1000 µg/mL and the MIC (Streptococcus faecalis; [10]) was > 1000 µg/mL. For the same compound, the MIC [1, 11] was > 1000 µg/mL, the “antibacterial potency compared with related form” value (bacteria) was “not as potent an antibacterial agent as the L-cis compound” and the MIC (Staphylococcus aureus; [12]) was 250 µg/mL (≈ 608 µM). It also gave an MIC (Staphylococcus aureus; [13]) of 1000 µg/mL (≈ 2430 µM) and an MIC (Staphylococcus aureus; [14]) of 125 µg/mL (≈ 304 µM).
